From PubChem BioAssay AID1963850 (Molecular Pharmacology Branch, DTP, NCI, 2024)
Values joined by “and” are separate entries in the source; they are usually repeats but may differ in a detail not shown here. Equal values may be shown once.

Test system: 192522-019-R-J2-PDC complex tumor spheroid viability
Test: Anticancer human tumor 192522-019-R-J2-PDC patient-derived colon adenocarcinoma cell line growth inhibition [POLQ]
Settings: for viability, T/C: stronger effect = lower value
Description: Multicellular complex tumor spheroid response to Polymerase (POL) inhibitors (novobiocin, ART-558, RP6685) in combination with a variety of drugs and investigational agents in selected tumor cell lines
The POL inhibitors (novobiocin, ART-558, and RP6685) were evaluated both individually and in combination with standard of care and investigational anticancer small molecules within a complex spheroid model of solid tumors. . Complex spheroids include a stromal component modeled by human endothelial cells (HUVEC) and fibroblasts modeled by human mesenchymal stem cells (MSCs). The concentration ranges selected for each drug and investigational agent were based upon clinically achievable concentrations if the clinical Cmax of the agent was known.
Compounds. The drugs and investigational agents: novobiocin (NSC847541), ART-558 (NSC835418), RP-6685 (NSC848927), peposertib (NSC802822), ceralasertib (NSC780249), elimusertib (NSC800525), camonsertib (NSC841442), AZD-1390 (NSC803789), olaparib (NSC753686), talazoparib (NSC767125), rucaparib (NSC756644), sotorasib (NSC818433), MRTX-1133 (NSC836407), SN-38 (NSC673596), topotecan (NSC609699), epotoside (NSC141540), doxorubicin (NSC123127), gemcitabine (NSC613327), 5-fluorouracil (NSC19893), paclitaxel (NSC125973), vemurafenib (NSC761431), MSA-2 (NSC828583), SN-011 (NSC837082), adavosertib (NSC754352), prexasertib (NSC758257), carboplatin (NSC241240) and oxaliplatin (NSC266046), were obtained from the National Cancer Institute (NCI) Developmental Therapeutics Program Chemical Repository (21). The FDA-approved anticancer drug set is available from the Developmental Therapeutics Program at https://dtp.cancer.gov/organization/dscb/obtaining/. […] The stock solutions were prepared in dimethyl sulfoxide (DMSO, Sigma-Aldrich, St. Louis, MO, cat. D2650), except for the platinum compounds which were prepared in saline (Quality Biological, Gaithersburg, MD, cat. 114-055-101), at 800-fold the tested concentration and stored at -70 degrees C prior to their use. All drugs and investigational agents were tested over a range starting from a high concentration at or near the clinical Cmax and decreasing in half-log increments. If the clinical Cmax for an agent had not been determined, the highest concentration tested was 10 microM, except for SN-38, which was tested at a high concentration of 1 microM.
Cell Culture. All cells were maintained in an incubator at 37 degrees C and 5% CO2 with 95% humidity. The PDC lines were cultured according to standard operating procedures established by the NCI PDMR (https://pdmr.cancer.gov). Table 3 of the manuscript, lists the cell lines along with the number of the three cell types plated to form the mct-spheroids and media for tumor cell growth. After thawing, all PDC lines, except 997537-175-T-J1-PDC and 415267-285-R-J2-PDC, were cultured in Matrigel-coated flasks prepared with a working solution of 1X Ham's F-12 nutrient mix, without supplementation (Thermo Fisher Scientific, cat. 11765054), 100 U/mL penicillin-streptomycin (Thermo Fisher Scientific, cat. 15140122), and 2.5% Matrigel (Corning Inc., Corning, NY, cat. 354248) for the first three passages. The two PDC lines 997537-175-T-J1-PDC and 415267-285-R-J2-PDC were cultured on uncoated flasks. The 857933-349-R-J2-PDC line was cultured in 6C/Colon 1B media containing advanced DMEM/F-12 (Thermo Fisher Scientific, cat. 12634028), 10 mM HEPES (Thermo Fisher Scientific, cat. 15630080), 1X GlutaMAX supplement (Thermo Fisher Scientific, cat. 35050061), 0.1 mg/mL primocin (InvivoGen, San Diego, CA, cat. ant-pm-2), 10% defined fetal bovine serum, heat inactivated (HyClone Laboratories Inc., Logan, UT, cat. SH30070.03HI), 50% L-WRN conditioned media (ATCC, cat. CRL-3276), 1.25 mM N-Acetyl-L-cysteine (Sigma-Aldrich, cat. A9165), 10 mM nicotinamide (Sigma-Aldrich, cat. N0636), 1X B-27 supplement (Thermo Fisher Scientific, cat. 17504044), 1X N-2 supplement (Thermo Fisher Scientific, cat. […]
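Also: spheroids exposed to drugs for seven days before reading.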
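For viability, T/C in this document: 100% = DMSO vehicle control viability in luminescence.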

## O=c1[nH]cc(F)c(=O)[nH]1
Compound 0.0316 µM
  viability, T/C: 92.8% and 104% and 97.2%
Compound 0.1 µM
  viability, T/C: 88.4% and 98% and 84.1%
Compound 0.316 µM
  viability, T/C: 81.6% and 85.3% and 79.5%
Compound 1 µM
  viability, T/C: 79.2% and 93.5% and 73.6%
Compound 3.16 µM
  viability, T/C: 86.3% and 94.5% and 74.5%
Compound 10 µM
  viability, T/C: 76.5% and 86% and 63.1%
Curve of compound
  IC50: > 10000 nM

## Nc1ccn(C2OC(CO)C(O)C2(F)F)c(=O)n1 (stereo not given)
Compound 0.0316 µM
  viability, T/C: 100% and 102% and 104%
Compound 0.1 µM
  viability, T/C: 83.2% and 86.6% and 83.9%
Compound 0.316 µM
  viability, T/C: 72.9% and 76.2% and 66.8%
Compound 1 µM
  viability, T/C: 78.3% and 79.2% and 66%
Compound 3.16 µM
  viability, T/C: 71.9% and 82% and 62.9%
Compound 10 µM
  viability, T/C: 50.5% and 62.5% and 58.2%
Curve of compound
  IC50: > 10000 nM

## Cn1ncnc1[C@H]1c2n[nH]c(=O)c3cc(F)cc(c23)N[C@@H]1c1ccc(F)cc1
Compound 0.000316 µM
  viability, T/C: 107% and 103% and 109%
Compound 0.001 µM
  viability, T/C: 95.2% and 97.2% and 98.7%
Compound 0.00316 µM
  viability, T/C: 95.3% and 101% and 95.1%
Compound 0.01 µM
  viability, T/C: 107% and 103% and 104%
Compound 0.0316 µM
  viability, T/C: 103% and 104% and 98.2%
Compound 0.1 µM
  viability, T/C: 91.1% and 96.3% and 85.5%
Curve of compound
  IC50: > 100 nM

## O=C(c1cc(Cc2n[nH]c(=O)c3ccccc23)ccc1F)N1CCN(C(=O)C2CC2)CC1
Compound 0.0316 µM
  viability, T/C: 99.6% and 98.7% and 100%
Compound 0.1 µM
  viability, T/C: 99% and 96.3% and 98.5%
Compound 0.316 µM
  viability, T/C: 96.2% and 100% and 101%
Compound 1 µM
  viability, T/C: 91.8% and 106% and 102%
Compound 3.16 µM
  viability, T/C: 97.4% and 116% and 113%
Compound 10 µM
  viability, T/C: 102% and 100% and 101%
Curve of compound
  IC50: > 10000 nM

## CC1COCCN1c1cc(-c2ccnn2C)c2ccnc(-c3ccn[nH]3)c2n1 (stereo not given) + COC1C(OC(N)=O)C(O)C(Oc2ccc3c(O)c(NC(=O)c4ccc(O)c(CC=C(C)C)c4)c(=O)oc3c2C)OC1(C)C
Curve of first compound, second compound 0.0316 µM
  IC50: 248 nM
Curve of first compound, second compound 0.1 µM
  IC50: 304 nM
Curve of first compound, second compound 0.316 µM
  IC50: 385 nM
Curve of first compound, second compound 1 µM
  IC50: 304 nM
Curve of first compound, second compound 3.16 µM
  IC50: 304 nM
Curve of first compound, second compound 10 µM
  IC50: 294 nM
Second compound 0.0316 µM, first compound 0.0316 µM
  viability, T/C: 92.7%
Second compound 0.0316 µM, first compound 0.1 µM
  viability, T/C: 70.6%
Second compound 0.0316 µM, first compound 0.316 µM
  viability, T/C: 45.5%
Second compound 0.0316 µM, first compound 1 µM
  viability, T/C: 34.8%
Second compound 0.0316 µM, first compound 3.16 µM
  viability, T/C: 38.4%
Second compound 0.0316 µM, first compound 10 µM
  viability, T/C: 45%
Second compound 0.1 µM, first compound 0.0316 µM
  viability, T/C: 103%
Second compound 0.1 µM, first compound 0.1 µM
  viability, T/C: 80.9%
Second compound 0.1 µM, first compound 0.316 µM
  viability, T/C: 50.3%
Second compound 0.1 µM, first compound 1 µM
  viability, T/C: 35.9%
Second compound 0.1 µM, first compound 3.16 µM
  viability, T/C: 36.9%
Second compound 0.1 µM, first compound 10 µM
  viability, T/C: 45.9%
Second compound 0.316 µM, first compound 0.0316 µM
  viability, T/C: 93.4%
Second compound 0.316 µM, first compound 0.1 µM
  viability, T/C: 84.1%
Second compound 0.316 µM, first compound 0.316 µM
  viability, T/C: 52.8%
Second compound 0.316 µM, first compound 1 µM
  viability, T/C: 35.4%
Second compound 0.316 µM, first compound 3.16 µM
  viability, T/C: 39.1%
Second compound 0.316 µM, first compound 10 µM
  viability, T/C: 47.6%
Second compound 1 µM, first compound 0.0316 µM
  viability, T/C: 101%
Second compound 1 µM, first compound 0.1 µM
  viability, T/C: 87.6%
Second compound 1 µM, first compound 0.316 µM
  viability, T/C: 49.5%
Second compound 1 µM, first compound 1 µM
  viability, T/C: 33.8%
Second compound 1 µM, first compound 3.16 µM
  viability, T/C: 33.6%
Second compound 1 µM, first compound 10 µM
  viability, T/C: 47.2%
Second compound 3.16 µM, first compound 0.0316 µM
  viability, T/C: 98.6%
Second compound 3.16 µM, first compound 0.1 µM
  viability, T/C: 86.1%
Second compound 3.16 µM, first compound 0.316 µM
  viability, T/C: 49.5%
Second compound 3.16 µM, first compound 1 µM
  viability, T/C: 34.6%
Second compound 3.16 µM, first compound 3.16 µM
  viability, T/C: 43.1%
Second compound 3.16 µM, first compound 10 µM
  viability, T/C: 48.3%
Second compound 10 µM, first compound 0.0316 µM
  viability, T/C: 103%
Second compound 10 µM, first compound 0.1 µM
  viability, T/C: 77.6%
Second compound 10 µM, first compound 0.316 µM
  viability, T/C: 50.2%
Second compound 10 µM, first compound 1 µM
  viability, T/C: 32.3%
Second compound 10 µM, first compound 3.16 µM
  viability, T/C: 44.9%
Second compound 10 µM, first compound 10 µM
  viability, T/C: 46.8%
